The source made the active and inactive calls. The calls are words filed in the database; no cut-off is given here.
What was measured:
[1] = Effective permeability of the compound by PAMPA-BBB assay; assay type: ADME; details: read-out: Peff
[2] = target: Acetylcholinesterase (Homo sapiens, UniProt P22303); assay: Inhibition of human recombinant AChE preincubated for 1 min in presence of DNTB followed by addition of acetylthiocholine iodide substrate and measured after 20 mins by Ellman's method
Acetylcholinesterase (Homo sapiens, UniProt P22303), sequence (P22303 whole entry): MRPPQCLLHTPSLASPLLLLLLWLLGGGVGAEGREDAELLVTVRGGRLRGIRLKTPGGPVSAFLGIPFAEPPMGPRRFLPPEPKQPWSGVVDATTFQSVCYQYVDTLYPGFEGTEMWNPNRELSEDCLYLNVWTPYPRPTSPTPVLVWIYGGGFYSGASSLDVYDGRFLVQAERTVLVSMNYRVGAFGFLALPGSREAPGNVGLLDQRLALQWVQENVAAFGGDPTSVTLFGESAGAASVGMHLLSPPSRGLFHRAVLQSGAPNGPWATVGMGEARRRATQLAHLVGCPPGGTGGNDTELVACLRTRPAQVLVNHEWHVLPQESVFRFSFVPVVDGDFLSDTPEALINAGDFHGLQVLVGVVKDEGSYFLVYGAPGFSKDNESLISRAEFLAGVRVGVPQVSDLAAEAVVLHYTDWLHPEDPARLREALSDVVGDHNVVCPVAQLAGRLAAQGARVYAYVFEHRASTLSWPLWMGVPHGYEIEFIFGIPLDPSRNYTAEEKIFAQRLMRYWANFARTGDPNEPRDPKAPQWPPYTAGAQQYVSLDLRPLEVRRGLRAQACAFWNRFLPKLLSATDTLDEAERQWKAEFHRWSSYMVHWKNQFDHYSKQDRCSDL

[3] = target: T1, Acetylcholinesterase (Mus musculus) (UniProt P21836); details: ICR, dose 10.0 mg/kg, time 1.5 hrs
T1 sequence (whole entry): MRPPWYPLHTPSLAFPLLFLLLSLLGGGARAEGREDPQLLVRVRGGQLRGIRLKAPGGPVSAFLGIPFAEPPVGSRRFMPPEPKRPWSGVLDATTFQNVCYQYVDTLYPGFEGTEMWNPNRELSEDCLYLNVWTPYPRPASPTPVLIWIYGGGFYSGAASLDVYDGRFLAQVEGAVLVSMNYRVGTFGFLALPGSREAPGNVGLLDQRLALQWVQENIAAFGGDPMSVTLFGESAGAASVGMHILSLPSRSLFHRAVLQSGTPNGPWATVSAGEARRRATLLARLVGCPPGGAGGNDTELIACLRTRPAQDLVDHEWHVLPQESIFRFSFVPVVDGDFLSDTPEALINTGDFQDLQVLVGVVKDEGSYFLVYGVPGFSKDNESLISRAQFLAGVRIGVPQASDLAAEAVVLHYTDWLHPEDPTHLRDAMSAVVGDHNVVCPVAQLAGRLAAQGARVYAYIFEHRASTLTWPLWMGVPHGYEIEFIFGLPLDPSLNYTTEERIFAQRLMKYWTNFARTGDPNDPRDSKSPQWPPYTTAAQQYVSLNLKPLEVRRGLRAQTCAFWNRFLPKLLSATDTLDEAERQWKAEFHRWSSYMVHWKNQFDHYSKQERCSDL

[4] = target: Mitogen-activated protein kinase 11 (Homo sapiens) (UniProt Q15759); assay: Inhibition of p38beta (unknown origin) at 0.3 uM
Mitogen-activated protein kinase 11 (Homo sapiens), sequence (Q15759 whole entry): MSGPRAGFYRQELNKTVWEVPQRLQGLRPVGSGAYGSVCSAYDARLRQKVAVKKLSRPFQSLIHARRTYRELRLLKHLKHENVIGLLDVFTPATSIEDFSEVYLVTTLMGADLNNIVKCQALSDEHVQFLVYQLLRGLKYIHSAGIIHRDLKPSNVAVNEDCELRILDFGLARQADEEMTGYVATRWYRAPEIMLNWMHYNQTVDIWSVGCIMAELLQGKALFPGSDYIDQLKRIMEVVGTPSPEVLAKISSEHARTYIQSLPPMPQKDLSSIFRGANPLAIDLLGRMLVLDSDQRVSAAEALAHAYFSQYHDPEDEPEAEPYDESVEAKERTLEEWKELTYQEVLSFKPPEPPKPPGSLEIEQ

[5] = Cmax in Sprague-Dawley rat at 1 mg/kg, iv measured up to 24 hrs by LC-MS/MS analysis; assay type: ADME, organism-based; set-up: route intravenous, dose 1 mg/kg, time <=24; details: in vivo
[6] = target: Cholinesterases; ACHE & BCHE (Homo sapiens) (UniProt P06276+P22303); assay: Selectivity index, ratio of IC50 for BChE (unknown origin) to IC50 for human recombinant AChE; assay type: protein assay
[7] = target: Cyclin-dependent kinase 4 (Homo sapiens) (UniProt P11802); assay: Inhibition of CDK4 (unknown origin) at 0.3 uM
Cyclin-dependent kinase 4 (Homo sapiens), sequence (P11802 whole entry): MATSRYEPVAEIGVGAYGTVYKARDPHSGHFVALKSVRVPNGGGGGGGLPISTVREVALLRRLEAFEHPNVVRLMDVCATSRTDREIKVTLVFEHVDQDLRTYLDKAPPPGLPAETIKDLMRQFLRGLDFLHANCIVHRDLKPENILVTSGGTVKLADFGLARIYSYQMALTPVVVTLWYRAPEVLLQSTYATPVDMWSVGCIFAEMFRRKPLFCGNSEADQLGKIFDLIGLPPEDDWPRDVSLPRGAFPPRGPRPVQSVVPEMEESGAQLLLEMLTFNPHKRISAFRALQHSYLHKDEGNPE

[8] = Drug level in ICR mouse brain at 10 mg/kg, po measured after 1 hr by LC/MS/MS analysis; assay type: ADME, organism-based; details: read-out: Ct
[9] = target: Mitogen-activated protein kinase 1 (Homo sapiens) (UniProt P28482); assay: Inhibition of ERK2 (unknown origin) at 0.3 uM
[10] = Half life in Sprague-Dawley rat at 10 mg/kg, po measured up to 24 hrs by LC-MS/MS analysis; assay type: ADME, organism-based; details: in vivo
[11] = system: Mus musculus; assay: Improvement in learning and spatial memory in amyloid beta (1 to 42)-induced mouse model of Alzheimer's disease at 10 mg/kg/day, po pretreated with amyloid beta42 for 3 days followed by treatment with compound and measured after 9 days measured by Y-maze test; assay type: functional, organism-based; details: time 9.0 day
[12] = Drug level in ICR mouse plasma at 10 mg/kg, po measured after 1 hr by LC/MS/MS analysis; assay type: ADME, organism-based
[13] = AUC (0 to infinity) in Sprague-Dawley rat at 1 mg/kg, iv measured up to 24 hrs by LC-MS/MS analysis; assay type: ADME, organism-based; set-up: route intravenous, dose 1 mg/kg, time <=24; details: in vivo
[14] = target: Mitogen-activated protein kinase 14 (Homo sapiens) (UniProt Q16539); assay: Inhibition of p38alpha (unknown origin) at 0.3 uM
Mitogen-activated protein kinase 14 (Homo sapiens), sequence (Q16539 whole entry): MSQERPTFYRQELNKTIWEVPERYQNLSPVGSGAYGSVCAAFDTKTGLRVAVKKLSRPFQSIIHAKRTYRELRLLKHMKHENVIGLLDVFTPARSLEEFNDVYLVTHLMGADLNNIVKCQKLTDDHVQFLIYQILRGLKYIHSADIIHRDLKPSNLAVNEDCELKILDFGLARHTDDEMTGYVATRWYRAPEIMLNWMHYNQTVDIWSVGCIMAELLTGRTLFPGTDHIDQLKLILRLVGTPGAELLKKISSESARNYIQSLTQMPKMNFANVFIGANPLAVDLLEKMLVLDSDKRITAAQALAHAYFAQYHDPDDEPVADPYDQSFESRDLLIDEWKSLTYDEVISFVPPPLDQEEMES

[15] = target: Cyclin-dependent kinase 7 (Homo sapiens) (UniProt P50613); assay: Inhibition of CDK7 (unknown origin) at 0.3 uM
Cyclin-dependent kinase 7 (Homo sapiens), sequence (P50613 whole entry): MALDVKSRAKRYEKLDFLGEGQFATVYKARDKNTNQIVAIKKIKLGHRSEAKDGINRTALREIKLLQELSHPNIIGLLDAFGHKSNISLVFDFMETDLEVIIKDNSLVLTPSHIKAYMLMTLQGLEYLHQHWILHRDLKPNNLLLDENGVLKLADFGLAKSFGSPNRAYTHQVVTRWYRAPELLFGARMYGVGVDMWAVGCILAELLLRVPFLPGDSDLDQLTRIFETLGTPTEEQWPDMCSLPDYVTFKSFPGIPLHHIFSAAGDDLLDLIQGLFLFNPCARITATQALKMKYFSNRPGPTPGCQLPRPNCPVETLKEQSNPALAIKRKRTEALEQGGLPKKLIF

[16] = Tmax in Sprague-Dawley rat at 10 mg/kg, po measured up to 24 hrs by LC-MS/MS analysis; assay type: ADME, organism-based; details: in vivo
[17] = target: Acetylcholinesterase (Electrophorus electricus, UniProt O42275); assay: Inhibition of electric eel recombinant AChE preincubated for 1 min in presence of DNTB followed by addition of acetylthiocholine iodide substrate and measured after 20 mins by Ellman's method
Acetylcholinesterase (Electrophorus electricus, UniProt O42275), sequence (O42275 whole entry): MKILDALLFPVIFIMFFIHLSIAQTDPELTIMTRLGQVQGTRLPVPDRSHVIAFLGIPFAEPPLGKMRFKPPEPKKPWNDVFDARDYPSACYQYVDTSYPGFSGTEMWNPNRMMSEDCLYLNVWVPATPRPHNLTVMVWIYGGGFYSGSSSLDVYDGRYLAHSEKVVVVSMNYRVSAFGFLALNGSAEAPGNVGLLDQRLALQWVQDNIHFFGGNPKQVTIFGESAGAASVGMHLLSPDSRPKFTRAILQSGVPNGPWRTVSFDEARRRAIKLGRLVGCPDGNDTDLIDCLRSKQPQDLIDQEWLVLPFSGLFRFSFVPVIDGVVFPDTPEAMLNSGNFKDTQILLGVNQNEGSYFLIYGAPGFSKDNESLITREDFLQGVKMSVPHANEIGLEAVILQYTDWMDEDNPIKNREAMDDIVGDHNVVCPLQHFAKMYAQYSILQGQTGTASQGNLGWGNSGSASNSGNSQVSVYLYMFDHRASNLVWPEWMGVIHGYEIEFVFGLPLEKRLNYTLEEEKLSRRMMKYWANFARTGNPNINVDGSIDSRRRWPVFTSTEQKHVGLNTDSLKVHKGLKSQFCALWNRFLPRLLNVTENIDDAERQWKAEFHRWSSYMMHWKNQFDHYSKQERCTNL

[18] = system: Rattus norvegicus; assay: Neuroprotective activity against amyloid beta (1 to 42)-induced suppression of synaptophysin in Sprague-Dawley rat at 5 mg/kg/day, po measured after 5 days by immunohistochemistry assay; assay type: functional, organism-based; details: time 5.0 day
[19] = Toxicity in amyloid beta (1 to 42)-induced mouse model of Alzheimer's disease assessed as morphological changes in liver tissue at 10 mg/kg/day, po measured after 9 days by HE staining method; assay type: organism-based; details: in vivo, 216 h, time 9 day
[20] = Drug level in ICR mouse brain at 10 mg/kg, po measured after 1.5 hrs by LC/MS/MS analysis; assay type: ADME, organism-based; details: read-out: Ct
[21] = target: Mitogen-activated protein kinase 3 (Homo sapiens) (UniProt P27361); assay: Inhibition of ERK1 (unknown origin) at 0.3 uM
Mitogen-activated protein kinase 3 (Homo sapiens), sequence (P27361 whole entry): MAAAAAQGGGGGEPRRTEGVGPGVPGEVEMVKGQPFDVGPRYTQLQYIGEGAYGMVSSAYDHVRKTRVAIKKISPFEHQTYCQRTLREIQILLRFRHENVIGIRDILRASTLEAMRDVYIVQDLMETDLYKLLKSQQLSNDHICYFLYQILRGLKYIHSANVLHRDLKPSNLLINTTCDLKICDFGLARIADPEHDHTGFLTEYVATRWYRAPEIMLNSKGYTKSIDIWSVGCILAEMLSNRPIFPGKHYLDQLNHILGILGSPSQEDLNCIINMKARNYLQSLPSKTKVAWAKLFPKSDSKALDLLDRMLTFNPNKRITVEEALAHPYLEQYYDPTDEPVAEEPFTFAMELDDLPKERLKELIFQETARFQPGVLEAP

[22] = target: Mitogen-activated protein kinase 10 (Homo sapiens) (UniProt P53779); assay: Inhibition of JNK3 (unknown origin) at 0.3 uM
Mitogen-activated protein kinase 10 (Homo sapiens), sequence (P53779 whole entry): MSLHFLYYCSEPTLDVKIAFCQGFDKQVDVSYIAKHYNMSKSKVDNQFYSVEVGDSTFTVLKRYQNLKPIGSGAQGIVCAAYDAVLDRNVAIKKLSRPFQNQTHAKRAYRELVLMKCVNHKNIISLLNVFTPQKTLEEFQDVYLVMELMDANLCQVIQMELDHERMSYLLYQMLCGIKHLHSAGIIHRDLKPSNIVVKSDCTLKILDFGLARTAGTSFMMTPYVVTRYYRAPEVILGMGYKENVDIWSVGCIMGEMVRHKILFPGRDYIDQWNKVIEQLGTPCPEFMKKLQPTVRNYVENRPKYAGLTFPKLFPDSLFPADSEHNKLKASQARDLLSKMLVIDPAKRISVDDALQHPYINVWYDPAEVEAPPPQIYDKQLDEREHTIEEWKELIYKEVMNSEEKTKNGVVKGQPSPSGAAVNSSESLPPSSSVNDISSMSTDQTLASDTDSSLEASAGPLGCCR

[23] = Toxicity in amyloid beta (1 to 42)-induced mouse model of Alzheimer's disease assessed as changes in body weight at 10 mg/kg/day, po measured after 9 days; assay type: organism-based; details: in vivo, 216 h, time 9 day
[24] = Oral bioavailability in Sprague-Dawley rat at 10 mg/kg measured up to 24 hrs by LC-MS/MS analysis; assay type: ADME, organism-based; details: in vivo
[25] = target: Glycogen synthase kinase-3 beta (Homo sapiens, UniProt P49841); assay: Inhibition of human recombinant N-terminal His-tagged GSK3beta expressed in Escherichia coli using RRRPASVPPSPSLS RHS(pS)HQRR as substrate incubated for 30 mins in presence of ATP by Kinase-Glo reagent based luminescence assay
Glycogen synthase kinase-3 beta, sequence (P49841 whole entry): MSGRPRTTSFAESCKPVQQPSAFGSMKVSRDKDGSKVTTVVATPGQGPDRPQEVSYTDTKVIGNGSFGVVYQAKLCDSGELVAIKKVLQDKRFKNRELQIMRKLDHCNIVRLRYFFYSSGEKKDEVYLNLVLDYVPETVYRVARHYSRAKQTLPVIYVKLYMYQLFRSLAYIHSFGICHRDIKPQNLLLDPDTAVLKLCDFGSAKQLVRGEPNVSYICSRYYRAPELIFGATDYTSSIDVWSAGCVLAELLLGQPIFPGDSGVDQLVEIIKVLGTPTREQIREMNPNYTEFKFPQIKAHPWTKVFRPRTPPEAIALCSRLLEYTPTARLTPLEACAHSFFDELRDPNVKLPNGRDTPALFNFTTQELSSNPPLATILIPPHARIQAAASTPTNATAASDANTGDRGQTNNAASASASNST

[26] = Cmax in Sprague-Dawley rat at 10 mg/kg, po measured up to 24 hrs by LC-MS/MS analysis; assay type: ADME, organism-based; set-up: route oral, dose 10 mg/kg, time <=24; details: in vivo
[27] = MRT (0 to infinity) in Sprague-Dawley rat at 10 mg/kg, po measured up to 24 hrs by LC-MS/MS analysis; assay type: ADME, organism-based; details: in vivo
[28] = target: Dual specificity tyrosine-phosphorylation-regulated kinase 1A (Homo sapiens) (UniProt Q13627); assay: Inhibition of dyrk1 alpha (unknown origin) at 0.3 uM
[29] = target: Cholinesterase (Homo sapiens, UniProt P06276); assay: Inhibition of BChE (unknown origin)
Cholinesterase, sequence (P06276 whole entry): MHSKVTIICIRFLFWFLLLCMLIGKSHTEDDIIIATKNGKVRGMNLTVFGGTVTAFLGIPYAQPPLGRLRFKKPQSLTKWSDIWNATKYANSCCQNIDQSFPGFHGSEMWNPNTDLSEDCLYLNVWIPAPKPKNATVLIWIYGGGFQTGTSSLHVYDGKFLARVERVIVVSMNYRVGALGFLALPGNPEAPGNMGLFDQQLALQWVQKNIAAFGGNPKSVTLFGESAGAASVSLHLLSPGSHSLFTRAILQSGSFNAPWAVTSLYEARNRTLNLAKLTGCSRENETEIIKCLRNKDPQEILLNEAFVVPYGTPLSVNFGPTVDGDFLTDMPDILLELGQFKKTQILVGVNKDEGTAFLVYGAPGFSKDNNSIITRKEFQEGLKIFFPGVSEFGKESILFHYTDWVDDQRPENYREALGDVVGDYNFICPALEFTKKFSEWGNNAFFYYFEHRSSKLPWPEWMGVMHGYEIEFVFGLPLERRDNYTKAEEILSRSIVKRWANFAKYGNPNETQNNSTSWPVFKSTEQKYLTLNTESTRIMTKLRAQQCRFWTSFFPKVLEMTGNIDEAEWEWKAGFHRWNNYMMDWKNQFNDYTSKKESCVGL

[30] = system: HT-22; assay: Neuroprotective activity in mouse HT-22 cells assessed as glutamate-induced cell mortality at 6 uM preincubated for 1 hr followed by addition of glutamate and measured after 24 hrs (reference value: 58%); assay type: functional; details: time 25 hrs
[31] = system: Mus musculus; assay: Cognitive enhancing effect in mouse model of scopolamine-induced amnesia assessed as escape latency time at 10 mg/kg/day, po measured by Morris water maze test (reference value: 17.9 sec); assay type: functional
[32] = target: Cyclin-dependent kinase 6 (Homo sapiens) (UniProt Q00534); assay: Inhibition of CDK6 (unknown origin) at 0.3 uM
Cyclin-dependent kinase 6 (Homo sapiens), sequence (Q00534 whole entry): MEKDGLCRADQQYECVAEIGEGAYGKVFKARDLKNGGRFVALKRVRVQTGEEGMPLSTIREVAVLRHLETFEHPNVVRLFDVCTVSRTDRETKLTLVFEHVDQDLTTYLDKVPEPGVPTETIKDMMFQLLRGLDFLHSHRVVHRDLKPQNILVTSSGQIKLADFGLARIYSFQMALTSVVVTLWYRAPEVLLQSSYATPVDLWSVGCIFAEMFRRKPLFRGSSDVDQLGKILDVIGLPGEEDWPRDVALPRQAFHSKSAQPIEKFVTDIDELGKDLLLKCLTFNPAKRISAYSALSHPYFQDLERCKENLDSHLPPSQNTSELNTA

## O=C(Nc1cncc(OCC2CCN(Cc3ccc(F)cc3)CC2)c1)c1ccnc(NC(=O)C2CC2)c1
[1]
  Papp: 10.5 ×10⁻⁶ cm/s
[2]
  IC50: 1 nM
[3]
  inhibition: 46.2%
[4]
  inhibition: inactive
[5]
  Cmax: 200 ng/mL
[6]
  Selectivity Index: 5300
[7]
  inhibition: inactive
[8]
  concentration at 1 h: 62 ng/g
[9]
  inhibition: inactive
[10]
  half-life: 7.6 h
[11]
  Activity: Active
[12]
  concentration at 1 h: 405 ng/g
[13]
  AUC(0-inf): 407 ng·h/mL
[14]
  inhibition: inactive
[15]
  inhibition: inactive
[16]
  Tmax: 1.9 h
[17]
  IC50: 11.8 nM
[18]
  Activity: Active
[19]
  Activity: Non-Toxic
[20]
  concentration at 1.5 h: 113 ng/g
[21]
  inhibition: inactive
[22]
  inhibition: inactive
[23]
  Activity: Non-Toxic
[24]
  bioavailability: 31%
[25]
  IC50: 31 nM
[26]
  Cmax: 159 ng/mL
[27]
  MRT inf: 10.9 h
[28]
  inhibition: inactive
[29]
  IC50: 5300 nM
[30]
  Activity: 66%
[31]
  Time: 18.1 s
[32]
  inhibition: inactive
